Measurements taken from US4293489A, “Derivatives of A-30912A nucleus” (Eli Lilly and Company, priority 1980, dated 1981).
Where two headings read alike, the source gives them in different places. Starred links: 1 amine or outer side, 2 acyl side, 3 side chain; linkers in the order of their positions; H or OH if unused. Positions of bridges follow the written chain, without caps; N, C: chain ends. Non-standard residues stand in square brackets, D forms with d. Residues, ends and D or L forms follow the SMILES beside them. *: point of attachment. Orn(4R-OH,5R-OH) = O=C([C@H](C[C@@H](O)[C@@H](O)N[*:3])N[*:1])[*:2]; hTyr(3S-OH,4S-OH) = N[C@H](C(=O)O)[C@H](O)[C@@H](O)c1ccc(O)cc1; Pro(3S-OH,4S-Me) = C[C@H]1CN[C@H](C(=O)O)[C@H]1O; Benzoyl(4-octyloxy) = CCCCCCCCOc1ccc(C(=O)*)cc1; X2 = CCCCCCCCCCCCCCS(=O)(=O)c1ccc(C(=O)*)cc1; Benzoyl(4-octyl) = CCCCCCCCc1ccc(C(=O)*)cc1; X22 = CCCCCCCCCCCCOc1ccc(CCC(=O)*)cc1; X18 = CCCCCCCCCCCCOc1ccc(CC(=O)*)cc1; X10 = CCCCCCCCCCCCOc1cccc(C(=O)*)c1; X16 = CCCCCCCCOc1ccc(C=CC(=O)*)cc1; X11 = CCCCCCCCOc1ccc(OCC(=O)*)cc1; X21 = CCCCCCCCOc1ccc(CCC(=O)*)cc1; Hyp = O=C(O)[C@@H]1C[C@@H](O)CN1; X15 = CCCCCCCCOc1cccc(CC(=O)*)c1; X19 = CCCCCCOc1ccc(C=CC(=O)*)cc1; X9 = CCCCCCCCCCOc1cccc(C(=O)*)c1; X12 = CCCCCCOc1ccc(CCC(=O)*)cc1; X13 = CCCCCCCCOc1cccc(C(=O)*)c1; X14 = CCCCCCOc1ccc(C(=O)*)cc1; X17 = CCCCOc1ccc(CCC(=O)*)cc1

Key:
[1] = test system: Trychophyton mentagrophyes #6; test: Agar plate disc diffusion test, MIC per disc; format: cell-based, Trichophyton mentagrophytes; conditions: 0.1M sodium borate, pH 7.5, 24 hours, 30° C., * measurable zones with regrowth of organism around disc
Protocol: (§1) Tables 10 and 11 give the results of the testing in vitro of the compounds of Examples 3 and 4 by agar-plate disc-diffusion methods. In Table 10 activity is measured by the size (diameter in mm) of the observed zone of inhibition of the microorganism produced by the test compound. In Table 11, activity is measured by the minimal inhibitory concentration (MIC) of the substance (μg/disc) required to inhibit growth of the test organism. Table 12 gives the results of the testing in vitro of the p-(n-octyloxy)benzoyl derivative of A30912A nucleus [Formula III, R^1 is p-(n-octyloxy)benzoyl] against five strains of Candida albicans by the agar dilution method. In Table 12 activity is measured by the minimal inhibitory concentration (MIC) of the substance (μg/ml) required to inhibit the test organism.
(§2) ^(a) Compounds were suspended in 0.1M sodium borate solution, pH 7.5.
(§3) The compounds were tested at 20 μg/disc at top level and at twofold
(§4) dilutions until end points were reached. Incubation: 24 hours; 30°
*Measurable zones of inhibition with regrowth of organism around disc.

[2] = test system: Candida albicans A-26; test: Agar plate disc diffusion test, MIC per disc; format: cell-based; conditions: 0.1M sodium borate, pH 7.5, 24 hours, 30° C.
Protocol: as §1, §2, §3, §4

[3] = test system: Candida albicans A-26; test: Therapeutic activity against Candida albicans A-26 infection in X-irradiated mice, lowest active dose; format: in vivo; conditions: A26, light or radiation study, sc
Protocol: The results of in vivo tests to evaluate the effectiveness of the compounds of Examples 3 and 4 against an infection caused by Candida albicans A-26 in mice are given in Table 13, where activity is measured by the ED50 value (the dose in mg/kg. required to cure 50% of the test animals). In a separate test, the results of which are also summarized in Table 13, activity is indicated by the lowest dose at which a significant anti-fungal effect is observed. In this test, groups of male albino mice (specific pathogen free), weighing 18 to 20 grams, are infected intravenously with Candida albicans A-26. The animals are X-irradiated 24 hours prior to infection at about 50 roentgens per minute for 8 minutes (400 total dose) to reduce immune responses to the infecting organism. At 0, 4, and 24 hours post infection each group of mice is given graded doses subcutaneously of the test compound as a suspension in 33% polyethylene glycol (PEG)-water. The day of death for each animal is recorded.
*Dosage Schedules: A. = 40, 20, 15 and 10 mg/kg; Dosages given 0, 4, and
24 hours post injection as suspension of test compound in 30% PEGH2
O. Number of mice receiving test compounds at each dosage level: 6 mice
per group. Number of mice in control (untreated) group: 10 mice per group

Structure (SMILES) | MIC [1] [μg/disc] | MIC [2] [μg/disc] | minimal effective dose ([3]; X-irradiated mice, subcutaneous at 0, 4 and 24 hours post infection, survival, read-out: Lowest Active Dose) [mg/kg] | minimal effective dose ([3]; read-out: Lowest Active Dose, X-irradiated mice, subcutaneous at 0, 4 and 24 hours post infection, survival) [mg/kg]
CCCCCCCCCCCCCCS(=O)(=O)c1ccc(C(=O)N[C@H]2C[C@@H](O)[C@@H](O)NC(=O)[C@@H]3[C@@H](O)[C@@H](C)CN3C(=O)[C@H]([C@@H](C)O)NC(=O)[C@H]([C@H](O)[C@@H](O)c3ccc(O)cc3)NC(=O)[C@@H]3C[C@@H](O)CN3C(=O)[C@H]([C@@H](C)O)NC2=O)cc1 [drawing 126] (X2-[Orn(4R-OH,5R-OH)]T[Hyp][hTyr(3S-OH,4S-OH)]T[Pro(3S-OH,4S-Me)]; lactam 1-C) | 0.039 | 0.625 |  | 
CCCCCCCCOc1cccc(C(=O)N[C@H]2C[C@@H](O)[C@@H](O)NC(=O)[C@@H]3[C@@H](O)[C@@H](C)CN3C(=O)[C@H]([C@@H](C)O)NC(=O)[C@H]([C@H](O)[C@@H](O)c3ccc(O)cc3)NC(=O)[C@@H]3C[C@@H](O)CN3C(=O)[C@H]([C@@H](C)O)NC2=O)c1 [drawing 127] (X13-[Orn(4R-OH,5R-OH)]T[Hyp][hTyr(3S-OH,4S-OH)]T[Pro(3S-OH,4S-Me)]; lactam 1-C) | > 40 | 10 |  | 
CCCCCCOc1ccc(CCC(=O)N[C@H]2C[C@@H](O)[C@@H](O)NC(=O)[C@@H]3[C@@H](O)[C@@H](C)CN3C(=O)[C@H]([C@@H](C)O)NC(=O)[C@H]([C@H](O)[C@@H](O)c3ccc(O)cc3)NC(=O)[C@@H]3C[C@@H](O)CN3C(=O)[C@H]([C@@H](C)O)NC2=O)cc1 [drawing 135] (X12-[Orn(4R-OH,5R-OH)]T[Hyp][hTyr(3S-OH,4S-OH)]T[Pro(3S-OH,4S-Me)]; lactam 1-C) | 0.156 | 0.625 |  | 
CCCCCCOc1ccc(C=CC(=O)N[C@H]2C[C@@H](O)[C@@H](O)NC(=O)[C@@H]3[C@@H](O)[C@@H](C)CN3C(=O)[C@H]([C@@H](C)O)NC(=O)[C@H]([C@H](O)[C@@H](O)c3ccc(O)cc3)NC(=O)[C@@H]3C[C@@H](O)CN3C(=O)[C@H]([C@@H](C)O)NC2=O)cc1 [drawing 139] (X19-[Orn(4R-OH,5R-OH)]T[Hyp][hTyr(3S-OH,4S-OH)]T[Pro(3S-OH,4S-Me)]; lactam 1-C) | 0.156 | 1.25 |  | 
CCCCCCCCOc1ccc(C=CC(=O)N[C@H]2C[C@@H](O)[C@@H](O)NC(=O)[C@@H]3[C@@H](O)[C@@H](C)CN3C(=O)[C@H]([C@@H](C)O)NC(=O)[C@H]([C@H](O)[C@@H](O)c3ccc(O)cc3)NC(=O)[C@@H]3C[C@@H](O)CN3C(=O)[C@H]([C@@H](C)O)NC2=O)cc1 [drawing 140] (X16-[Orn(4R-OH,5R-OH)]T[Hyp][hTyr(3S-OH,4S-OH)]T[Pro(3S-OH,4S-Me)]; lactam 1-C) | 0.156 | 0.156 |  | 
CCCCCCCCOc1cccc(CC(=O)N[C@H]2C[C@@H](O)[C@@H](O)NC(=O)[C@@H]3[C@@H](O)[C@@H](C)CN3C(=O)[C@H]([C@@H](C)O)NC(=O)[C@H]([C@H](O)[C@@H](O)c3ccc(O)cc3)NC(=O)[C@@H]3C[C@@H](O)CN3C(=O)[C@H]([C@@H](C)O)NC2=O)c1 [drawing 141] (X15-[Orn(4R-OH,5R-OH)]T[Hyp][hTyr(3S-OH,4S-OH)]T[Pro(3S-OH,4S-Me)]; lactam 1-C) | 80 | 5 |  | 
CCCCCCCCCCCCOc1ccc(CC(=O)N[C@H]2C[C@@H](O)[C@@H](O)NC(=O)[C@@H]3[C@@H](O)[C@@H](C)CN3C(=O)[C@H]([C@@H](C)O)NC(=O)[C@H]([C@H](O)[C@@H](O)c3ccc(O)cc3)NC(=O)[C@@H]3C[C@@H](O)CN3C(=O)[C@H]([C@@H](C)O)NC2=O)cc1 [drawing 142] (X18-[Orn(4R-OH,5R-OH)]T[Hyp][hTyr(3S-OH,4S-OH)]T[Pro(3S-OH,4S-Me)]; lactam 1-C) | 0.625 | 0.312 |  | 
CCCCCCCCOc1ccc(OCC(=O)N[C@H]2C[C@@H](O)[C@@H](O)NC(=O)[C@@H]3[C@@H](O)[C@@H](C)CN3C(=O)[C@H]([C@@H](C)O)NC(=O)[C@H]([C@H](O)[C@@H](O)c3ccc(O)cc3)NC(=O)[C@@H]3C[C@@H](O)CN3C(=O)[C@H]([C@@H](C)O)NC2=O)cc1 [drawing 145] (X11-[Orn(4R-OH,5R-OH)]T[Hyp][hTyr(3S-OH,4S-OH)]T[Pro(3S-OH,4S-Me)]; lactam 1-C) | 80 | 0.312 |  | 
CCCCCCCCOc1ccc(C(=O)N[C@H]2C[C@@H](O)[C@@H](O)NC(=O)[C@@H]3[C@@H](O)[C@@H](C)CN3C(=O)[C@H]([C@@H](C)O)NC(=O)[C@H]([C@H](O)[C@@H](O)c3ccc(O)cc3)NC(=O)[C@@H]3C[C@@H](O)CN3C(=O)[C@H]([C@@H](C)O)NC2=O)cc1 [drawing 151] ({Benzoyl(4-octyloxy)}-[Orn(4R-OH,5R-OH)]T[Hyp][hTyr(3S-OH,4S-OH)]T[Pro(3S-OH,4S-Me)]; lactam 1-C) |  |  | < 12.5 | 10

Further lines, with some results ahead:

MIC [1] [μg/disc] | MIC [2] [μg/disc] | Structure (SMILES) | minimal effective dose ([3]; X-irradiated mice, subcutaneous at 0, 4 and 24 hours post infection, survival, read-out: Lowest Active Dose) [mg/kg] | minimal effective dose ([3]; read-out: Lowest Active Dose, X-irradiated mice, subcutaneous at 0, 4 and 24 hours post infection, survival) [mg/kg]
> 40 | 2.5 | CCCCCCCCCCOc1cccc(C(=O)N[C@H]2C[C@@H](O)[C@@H](O)NC(=O)[C@@H]3[C@@H](O)[C@@H](C)CN3C(=O)[C@H]([C@@H](C)O)NC(=O)[C@H]([C@H](O)[C@@H](O)c3ccc(O)cc3)NC(=O)[C@@H]3C[C@@H](O)CN3C(=O)[C@H]([C@@H](C)O)NC2=O)c1 [drawing 128] (X9-[Orn(4R-OH,5R-OH)]T[Hyp][hTyr(3S-OH,4S-OH)]T[Pro(3S-OH,4S-Me)]; lactam 1-C) |  | 
> 40 | 2.5 | CCCCCCCCCCCCOc1cccc(C(=O)N[C@H]2C[C@@H](O)[C@@H](O)NC(=O)[C@@H]3[C@@H](O)[C@@H](C)CN3C(=O)[C@H]([C@@H](C)O)NC(=O)[C@H]([C@H](O)[C@@H](O)c3ccc(O)cc3)NC(=O)[C@@H]3C[C@@H](O)CN3C(=O)[C@H]([C@@H](C)O)NC2=O)c1 [drawing 129] (X10-[Orn(4R-OH,5R-OH)]T[Hyp][hTyr(3S-OH,4S-OH)]T[Pro(3S-OH,4S-Me)]; lactam 1-C) |  | 
0.312 | 2.5 | CCCCCCOc1ccc(C(=O)N[C@H]2C[C@@H](O)[C@@H](O)NC(=O)[C@@H]3[C@@H](O)[C@@H](C)CN3C(=O)[C@H]([C@@H](C)O)NC(=O)[C@H]([C@H](O)[C@@H](O)c3ccc(O)cc3)NC(=O)[C@@H]3C[C@@H](O)CN3C(=O)[C@H]([C@@H](C)O)NC2=O)cc1 [drawing 131] (X14-[Orn(4R-OH,5R-OH)]T[Hyp][hTyr(3S-OH,4S-OH)]T[Pro(3S-OH,4S-Me)]; lactam 1-C) |  | 
0.156 | 0.625 | CCCCCCCCc1ccc(C(=O)N[C@H]2C[C@@H](O)[C@@H](O)NC(=O)[C@@H]3[C@@H](O)[C@@H](C)CN3C(=O)[C@H]([C@@H](C)O)NC(=O)[C@H]([C@H](O)[C@@H](O)c3ccc(O)cc3)NC(=O)[C@@H]3C[C@@H](O)CN3C(=O)[C@H]([C@@H](C)O)NC2=O)cc1 [drawing 133] ({Benzoyl(4-octyl)}-[Orn(4R-OH,5R-OH)]T[Hyp][hTyr(3S-OH,4S-OH)]T[Pro(3S-OH,4S-Me)]; lactam 1-C) |  | 
1.25 | 20 | CCCCOc1ccc(CCC(=O)N[C@H]2C[C@@H](O)[C@@H](O)NC(=O)[C@@H]3[C@@H](O)[C@@H](C)CN3C(=O)[C@H]([C@@H](C)O)NC(=O)[C@H]([C@H](O)[C@@H](O)c3ccc(O)cc3)NC(=O)[C@@H]3C[C@@H](O)CN3C(=O)[C@H]([C@@H](C)O)NC2=O)cc1 [drawing 134] (X17-[Orn(4R-OH,5R-OH)]T[Hyp][hTyr(3S-OH,4S-OH)]T[Pro(3S-OH,4S-Me)]; lactam 1-C) |  | 
0.156 | 0.078 | CCCCCCCCOc1ccc(CCC(=O)N[C@H]2C[C@@H](O)[C@@H](O)NC(=O)[C@@H]3[C@@H](O)[C@@H](C)CN3C(=O)[C@H]([C@@H](C)O)NC(=O)[C@H]([C@H](O)[C@@H](O)c3ccc(O)cc3)NC(=O)[C@@H]3C[C@@H](O)CN3C(=O)[C@H]([C@@H](C)O)NC2=O)cc1 [drawing 136] (X21-[Orn(4R-OH,5R-OH)]T[Hyp][hTyr(3S-OH,4S-OH)]T[Pro(3S-OH,4S-Me)]; lactam 1-C) |  | 
0.156 | 0.312 | CCCCCCCCCCCCOc1ccc(CCC(=O)N[C@H]2C[C@@H](O)[C@@H](O)NC(=O)[C@@H]3[C@@H](O)[C@@H](C)CN3C(=O)[C@H]([C@@H](C)O)NC(=O)[C@H]([C@H](O)[C@@H](O)c3ccc(O)cc3)NC(=O)[C@@H]3C[C@@H](O)CN3C(=O)[C@H]([C@@H](C)O)NC2=O)cc1 [drawing 137] (X22-[Orn(4R-OH,5R-OH)]T[Hyp][hTyr(3S-OH,4S-OH)]T[Pro(3S-OH,4S-Me)]; lactam 1-C) |  | 
